Assay results taken from ChEMBL document CHEMBL5214948, “Boronic Acid: A Novel Pharmacophore Targeting Src Homology 2 (SH2) Domain of STAT3” (J Med Chem, 2022).

Legend:
MGC-803 = assay: Antiproliferative activity against human MGC-803 cells assessed as reduction in cell viability measured after 72 hrs by CCK-8 assay; assay type: functional, cell-based; conditions: MGC-803, 72 h
AGS = assay: Antiproliferative activity against human AGS cells assessed as reduction in cell viability incubated for 72 hrs by CCK-8 assay; assay type: functional, cell-based

C[C@H](C(=O)N(Cc1ccc(C2CCCCC2)cc1)c1ccc(B(O)O)cc1)N(C)S(=O)(=O)c1c(F)c(F)c(F)c(F)c1F
IC50 (MGC-803): 3130 nM | IC50 (AGS): 1720 nM
